Values after ≈ are worked out from the molar mass of the structure shown.
Assays:
MRSA KS89 = assay: MIC, broth microdilution, MRSA KS89; type: cell-based, Staphylococcus aureus; conditions: for MIC-fold improvement vs. vancomycin: MRSA KS8, ratio of MIC of vancomycin and MIC of analogue; for MIC: Staphylococcus aureus MRSA KS8, read-out: MIC
In short: (§1)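 Assayed by broth microdilution under CLSI antimicrobial testing rules. One case paired the analog or control drug with vancomycin at a 10 μM final concentration; water and inoculum-free broth were controls.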

E. faecalis VRE 29 = assay: MIC, broth microdilution, vancomycin-resistant E. faecalis VRE 29 (VanA); type: cell-based, Enterococcus faecalis; conditions: for MIC: Enterococcus faecalis VRE 29 (vancomycin-resistant), read-out: MIC; for MIC-fold improvement vs. vancomycin: VRE 29, ratio of MIC of vancomycin and MIC of analogue
In short: as §1

S. aureus VRSA = assay: MIC, broth microdilution, vancomycin-resistant S. aureus (VRSA); type: cell-based, Staphylococcus aureus; conditions: for MIC: Staphylococcus aureus VRSA, read-out: MIC; for MIC-fold improvement vs. vancomycin: VRSA, ratio of MIC of vancomycin and MIC of analogue
In short: as §1

MRSA KS2 = assay: MIC, broth microdilution, MRSA KS2; type: cell-based, Staphylococcus aureus; conditions: for MIC-fold improvement vs. vancomycin: MRSA KS2, ratio of MIC of vancomycin and MIC of analogue; for MIC: Staphylococcus aureus MRSA KS2, read-out: MIC
In short: as §1

[1] = system: human T-lymphocyte (CEM) cells; assay: Cytostatic activity, CEM cell proliferation; type: cell-based; conditions: mean ± SD of three experiments; highest concentration tested 250 µM; 3 days; read-out: Toxicity (IC50) CEM
In short: (§2)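 Readout: Coulter cell number after drug exposure at 37°C. Durations differ by line (L1210 2 days; CEM 3 days; HeLa 4 days). Stock suspension 300,000–500,000 cells/mL, diluted by mixing with compound. Endpoint: IC50 vs negative control.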

E. faecalis VRE 37 = assay: MIC, broth microdilution, vancomycin-resistant E. faecalis VRE 37 (VanA); type: cell-based, Enterococcus faecalis; conditions: for MIC: Enterococcus faecalis VRE 37 (vancomycin-resistant), read-out: MIC; for MIC-fold improvement vs. vancomycin: VRE 37, ratio of MIC of vancomycin and MIC of analogue
In short: as §1

E. faecalis VSE 1 = assay: MIC, broth microdilution, vancomycin-sensitive E. faecalis (VSE 1); type: cell-based, Enterococcus faecalis; conditions: for MIC: Enterococcus faecalis VSE 1 (vancomycin-sensitive), read-out: MIC; for MIC-fold improvement vs. vancomycin: VSE 1, ratio of MIC of vancomycin and MIC of analogue
In short: as §1

[2] = system: Murine leukemia (L1210) cells; assay: Cytostatic activity, L1210 cell proliferation; type: cell-based; conditions: mean ± SD of three experiments; highest concentration tested 250 µM; 2 days; read-out: Toxicity (IC50) L1210
In short: as §2

[3] = system: S. aureus VSSA (ATCC 6538); assay: MIC, broth microdilution, vancomycin-sensitive S. aureus (VSSA/MSSA, ATCC 6538); type: cell-based, Staphylococcus aureus; conditions: for MIC: Staphylococcus aureus VSSA, read-out: MIC; for MIC-fold improvement vs. vancomycin: VSSA, ratio of MIC of vancomycin and MIC of analogue
In short: as §1

[4] = system: L1210, CEM and HeLa cell lines; assay: Cytostatic activity, average or summary over L1210, CEM and HeLa; type: cell-based; conditions: average of L1210, CEM and HeLa; read-out: Toxicity (IC50) Average
In short: as §2

MRSA KS1 = assay: MIC, broth microdilution, MRSA KS1; type: cell-based, Staphylococcus aureus; conditions: for MIC-fold improvement vs. vancomycin: MRSA KS1, ratio of MIC of vancomycin and MIC of analogue; for MIC: Staphylococcus aureus MRSA KS1, read-out: MIC
In short: as §1

MRSA KS6 = assay: MIC, broth microdilution, MRSA KS6; type: cell-based, Staphylococcus aureus; conditions: for MIC-fold improvement vs. vancomycin: MRSA KS6, ratio of MIC of vancomycin and MIC of analogue; for MIC: Staphylococcus aureus MRSA KS6, read-out: MIC
In short: as §1

S. aureus VISA/HIP5827 = assay: MIC, broth microdilution, vancomycin-intermediate S. aureus VISA HIP5827; type: cell-based, Staphylococcus aureus; conditions: for MIC: Staphylococcus aureus VISA/HIP5827, read-out: MIC; for MIC-fold improvement vs. vancomycin: VISA/HIP5827, ratio of MIC of vancomycin and MIC of analogue
In short: as §1

E. faecalis VRE 6 = assay: MIC, broth microdilution, vancomycin-resistant E. faecalis VRE 6 (VanA); type: cell-based, Enterococcus faecalis; conditions: for MIC: Enterococcus faecalis VRE 6 (vancomycin-resistant), read-out: MIC; for MIC-fold improvement vs. vancomycin: VRE 6, ratio of MIC of vancomycin and MIC of analogue
In short: as §1

[5] = system: human cervix carcinoma (HeLa) cells; assay: Cytostatic activity, HeLa cell proliferation; type: cell-based; conditions: mean ± SD of three experiments; highest concentration tested 250 µM; 4 days; read-out: Toxicity (IC50) HeLa
In short: as §2

E. faecalis VRE 53 = assay: MIC, broth microdilution, vancomycin-resistant E. faecalis VRE 53 (VanA); type: cell-based, Enterococcus faecalis; conditions: for MIC: Enterococcus faecalis VRE 53 (vancomycin-resistant), read-out: MIC; for MIC-fold improvement vs. vancomycin: VRE 53, ratio of MIC of vancomycin and MIC of analogue
In short: as §1

Row | SMILES | MIC-fold improvement vs. vancomycin (MRSA KS89) | MIC (MRSA KS89) [µM] | MIC (E. faecalis VRE 29) [µM] | MIC-fold improvement vs. vancomycin (E. faecalis VRE 29) | MIC (S. aureus VRSA) [µM] | MIC-fold improvement vs. vancomycin (S. aureus VRSA) | MIC-fold improvement vs. vancomycin (MRSA KS2) | MIC (MRSA KS2) [µM] | IC50 [1] [µM] | MIC (E. faecalis VRE 37) [µM] | MIC-fold improvement vs. vancomycin (E. faecalis VRE 37) | MIC (E. faecalis VSE 1) [µM] | MIC-fold improvement vs. vancomycin (E. faecalis VSE 1) | IC50 [2] [µM] | MIC [3] [µM] | MIC-fold improvement vs. vancomycin [3] | IC50 [4] [µM] | MIC-fold improvement vs. vancomycin (MRSA KS1) | MIC (MRSA KS1) [µM] | MIC-fold improvement vs. vancomycin (MRSA KS6) | also measured
1 | CNC(CC(C)C)C(=O)NC1C(=O)NC(CC(N)=O)C(=O)NC2C(=O)NC3C(=O)NC(C(=O)NC(C(=O)NCC(=O)Nc4ccc(-c5cn(-c6ccc(OC)cc6)nn5)cc4)c4cc(O)cc(O)c4-c4cc3ccc4O)C(O)c3ccc(c(Cl)c3)Oc3cc2cc(c3OC2OC(CO)C(O)C(O)C2OC2CC(C)(N)C(O)C(C)O2)Oc2ccc(cc2Cl)C1O (stereo not drawn) [Vanc-72] | 4 | 0.20 (≈ 0.351 µg/mL) | 6.25 (≈ 11 µg/mL) | 64 | 0.78 (≈ 1.37 µg/mL) | 128 | 4 | 0.20 (≈ 0.351 µg/mL) | 17 ± 1 | 6.25 (≈ 11 µg/mL) | 64 | 0.78 (≈ 1.37 µg/mL) | 2 | 173 ± 106 | 0.39 (≈ 0.684 µg/mL) | 2 | 72 | 0.5 | 1.56 (≈ 2.74 µg/mL) | 4 | MIC (MRSA KS6): 0.20 µM (≈ 0.351 µg/mL); MIC (S. aureus VISA/HIP5827): 0.78 µM (≈ 1.37 µg/mL); MIC-fold improvement vs. vancomycin (S. aureus VISA/HIP5827): 8; MIC (E. faecalis VRE 6): 3.13 µM (≈ 5.49 µg/mL); MIC-fold improvement vs. vancomycin (E. faecalis VRE 6): 64; IC50 [5]: 25 ± 10 µM; MIC (E. faecalis VRE 53): 6.25 µM (≈ 11 µg/mL); MIC-fold improvement vs. vancomycin (E. faecalis VRE 53): 64
2 | CNC(CC(C)C)C(=O)NC1C(=O)NC(CC(N)=O)C(=O)NC2C(=O)NC3C(=O)NC(C(=O)NC(C(=O)NCCCNC(=O)c4ccc(C(C)(C)C)cc4)c4cc(O)cc(O)c4-c4cc3ccc4O)C(O)c3ccc(c(Cl)c3)Oc3cc2cc(c3OC2OC(CO)C(O)C(O)C2OC2CC(C)(N)C(O)C(C)O2)Oc2ccc(cc2Cl)C1O (stereo not drawn) [Vanc-73] | 2 | 0.39 (≈ 0.65 µg/mL) | 12.5 (≈ 20.8 µg/mL) | 32 | 6.25 (≈ 10.4 µg/mL) | 16 | 2 | 0.39 (≈ 0.65 µg/mL) | 130 ± 6 | 25 (≈ 41.6 µg/mL) | 16 | 0.78 (≈ 1.3 µg/mL) | 2 | 108 ± 42 | 0.78 (≈ 1.3 µg/mL) | 1 | 106 | 1 | 0.78 (≈ 1.3 µg/mL) | 2 | MIC (MRSA KS6): 0.39 µM (≈ 0.65 µg/mL); MIC (S. aureus VISA/HIP5827): 1.56 µM (≈ 2.6 µg/mL); MIC-fold improvement vs. vancomycin (S. aureus VISA/HIP5827): 4; MIC (E. faecalis VRE 6): 6.25 µM (≈ 10.4 µg/mL); MIC-fold improvement vs. vancomycin (E. faecalis VRE 6): 32; IC50 [5]: 81 ± 6 µM; MIC (E. faecalis VRE 53): 25 µM (≈ 41.6 µg/mL); MIC-fold improvement vs. vancomycin (E. faecalis VRE 53): 16
3 | CCCCCc1ccc(NC(=O)CNC(=O)[C@H]2NC(=O)[C@H]3NC(=O)[C@H](NC(=O)[C@@H]4NC(=O)[C@H](CC(N)=O)NC(=O)[C@H](NC(=O)[C@@H](CC(C)C)NC)[C@H](O)c5ccc(c(Cl)c5)Oc5cc4cc(c5O[C@@H]4O[C@H](CO)[C@@H](O)[C@H](O)[C@H]4O[C@H]4C[C@](C)(N)[C@H](O)[C@H](C)O4)Oc4ccc(cc4Cl)[C@H]3O)c3ccc(O)c(c3)-c3c(O)cc(O)cc32)cc1 [Vanc-74] | 4 | 0.20 (≈ 0.33 µg/mL) | 12.5 (≈ 20.6 µg/mL) | 32 | 1.56 (≈ 2.58 µg/mL) | 64 | 4 | 0.20 (≈ 0.33 µg/mL) | 78 ± 20 | 6.25 (≈ 10.3 µg/mL) | 64 | 0.39 (≈ 0.644 µg/mL) | 4 | ≥ 250 | 0.39 (≈ 0.644 µg/mL) | 2 | 143 | 1 | 0.78 (≈ 1.29 µg/mL) | 4 | MIC (MRSA KS6): 0.20 µM (≈ 0.33 µg/mL); MIC (S. aureus VISA/HIP5827): 0.78 µM (≈ 1.29 µg/mL); MIC-fold improvement vs. vancomycin (S. aureus VISA/HIP5827): 8; MIC (E. faecalis VRE 6): 1.56 µM (≈ 2.58 µg/mL); MIC-fold improvement vs. vancomycin (E. faecalis VRE 6): 128; IC50 [5]: 102 ± 46 µM; MIC (E. faecalis VRE 53): 6.25 µM (≈ 10.3 µg/mL); MIC-fold improvement vs. vancomycin (E. faecalis VRE 53): 64

Reference: paper PMC6001238, “Iterative Chemical Engineering of Vancomycin Leads to Novel Vancomycin Analogs With a High in Vitro Therapeutic Index” (Frontiers in Microbiology, 2018)
